Test results published in patent publication US9040542B2, “Solid forms of gyrase inhibitor (R)-1-ethyl-3-[6-fluoro-5-[2-(1-hydroxy-1-methyl-ethyl)pryimidin-5-yl]-7-(tetrahydrofuran-2-yl)-1H-benzimidazol-2-yl]urea” (priority 2011, dated 2015).
≈ marks a conversion by molar mass, not a printed value.

Assays:
[1] = Stability data of solid forms on storage; format: physicochemical
[2] = test system: Staphylococcus aureus ATCC 29213 GyrB T173I; test: MIC, Protocol #1 microdilution broth; format: cell-based
[3] = test system: Enterococcus faecalis ATCC 29212; test: MIC, Protocol #1 microdilution broth; format: cell-based; conditions: Enterococcus faecalis ATCC 29212, with Laked Horse Blood
[4] = test system: Bacillus cereus ATCC 10987; test: MIC, Protocol #1 microdilution broth; format: cell-based
[5] = test system: Bacillus cereus ATCC 14579; test: MIC, Protocol #1 microdilution broth; format: cell-based
[6] = test system: Clostridium difficile ATCC BAA-1382; test: MIC, Protocol #3 agar dilution; format: cell-based
Escherichia coli CHE30 = test: MIC, Protocol 2 microdilution broth, Gram negatives; format: cell-based
From the text: (§1) The specific protocols used were as follows:
(§2) Drug dilutions, inoculation, MIC determination: • 1.

[7] = test system: Pseudomonas aeruginosa PAO750; test: as above; format: cell-based
From the text: as §1, §2

Mycobacterium avium 103 = test: MIC, Protocol #4 Mycobacterium species; format: cell-based
M. avium Far = test: MIC, Protocol #4 Mycobacterium species; format: cell-based
Nocardia caviae 2497 = test: MIC, Protocol #4 Mycobacterium species; format: cell-based
Procedure: Protocol #4. MIC Determination Procedure for Mycobacterium Species
Inoculum Preparation for M. kansasii, M. avium, M. abscessus and Nocardia spc.: • 1. Used prepared frozen stock of culture or a fresh culture grown in 7H10 broth at a concentration of 10 Klett or 5×10^7/ml. • 2. Prepared a 1:20 dilution by removing 1.0 ml of the culture stock and added it to 19 ml of 7H10 broth (final concentration 2.5×10^6 cfu/ml). • 3. From this dilution prepared a 1:20 dilution, removed 1 ml and added it to 19 ml of fresh broth (final suspension).
Plate Preparation: • 1. Labeled plates. • 2. Added 50 μl of 7H10 broth +10% OADC to all wells being utilized for MIC determination using a multichannel electronic pipettor. • 3. Prepared stock solutions of drugs (e.g. 1 mg/ml concentration) to be tested. • 4. Thawed and diluted frozen stock solutions using 7H10 broth +10% OADC to obtain a working solution 4× the maximum concentration tested (e.g. final concentration 32 μg/ml, highest concentration tested was 8 μg/ml). Dilutions were made from the stock solution. To start at a concentration of 1 μg/ml, the drugs were prepared at 4 μg/ml, so the starting concentration was 1 μg/ml. Removed 25 μl of the 1 mg/ml stock and added to 6.2 ml of broth. All dilutions of drugs were done in broth. • 5. Added 50 μl of the 4× working solution to the first well of the designated row. […] Read visually and recorded the results.

N. nova 10 = test: MIC, Protocol #4 Mycobacterium species; format: cell-based
M. kansasii 316 = test: MIC, Protocol #4 Mycobacterium species; format: cell-based
M. kansasii 379 = test: MIC, Protocol #4 Mycobacterium species; format: cell-based
[8] = test system: M. tuberculosis Erdman ATCC 35801; test: MIC, Protocol #4 Mycobacterium species; format: cell-based
M. abscessus MC 6005 = test: MIC, Protocol #4 Mycobacterium species; format: cell-based
M. abscessus BB3 = test: MIC, Protocol #4 Mycobacterium species; format: cell-based
M. abscessus BB4 = test: MIC, Protocol #4 Mycobacterium species; format: cell-based
M. abscessus MC 5812 = test: MIC, Protocol #4 Mycobacterium species; format: cell-based
M. abscessus MC 5901 = test: MIC, Protocol #4 Mycobacterium species; format: cell-based
M. abscessus BB6 = test: MIC, Protocol #4 Mycobacterium species; format: cell-based
M. abscessus LT 949 = test: MIC, Protocol #4 Mycobacterium species; format: cell-based
M. abscessus BB10 = test: MIC, Protocol #4 Mycobacterium species; format: cell-based
M. abscessus MC 6142 = test: MIC, Protocol #4 Mycobacterium species; format: cell-based
M. abscessus MC 6136 = test: MIC, Protocol #4 Mycobacterium species; format: cell-based
M. abscessus MC 6111 = test: MIC, Protocol #4 Mycobacterium species; format: cell-based
M. abscessus MC 6153 = test: MIC, Protocol #4 Mycobacterium species; format: cell-based
Neisseria gonorrhoeae = test: MIC90 panel, Protocol #3 agar dilution; format: cell-based; conditions: 13 isolates
Clostridium difficile = test: MIC90 panel, Protocol #3 agar dilution; format: cell-based; conditions: 16 isolates
Clostridium perfringens = test: microbe, parasite or virus in culture; format: cell-based
Fusobacterium spp. = test: MIC90 panel, Protocol #3 agar dilution; format: cell-based; conditions: 16 isolates
Peptostreptococcus spp. = test: MIC90 panel, Protocol #3 agar dilution; format: cell-based; conditions: 11 isolates
[9] = test system: Moraxella catarrhalis ATCC 25238; test: MIC, Protocol 2 microdilution broth, Gram negatives; parameters: unit not given beside the values
[10] = test system: Moraxella catarrhalis ATCC 49143; test: as above; parameters: unit not given beside the values

CCNC(=O)Nc1nc2cc(-c3cnc(C(C)(C)O)nc3)c(F)c([C@H]3CCCO3)c2[nH]1 [Compound 24, 1-ethyl-3-[6-fluoro-5-[2-(1-hydroxy-1-methyl-ethyl)pyrimidin-5-yl]-7-[(2R)-tetrahydrofuran-2-yl]-1H-benzimidazol-2-yl]urea]
chemical and physical stability ([1]; 25° C./60% RH, one week time point): chemically and physically unstable
chemical stability ([1]; 40° C./ambient, t=2 weeks): chemically unstable
MIC [2]: 0.3 µg/mL (≈ 0.7 µM)
MIC [3]: 0.028 µg/mL (≈ 0.0653 µM)
MIC [4]: 0.031 µg/mL (≈ 0.0724 µM)
MIC [5]: 0.031 µg/mL (≈ 0.0724 µM)
MIC [6]: 0.38 µg/mL (≈ 0.887 µM)
MIC (Escherichia coli CHE30): 8 µg/mL (≈ 18.7 µM)
MIC [7]: 0.25 µg/mL (≈ 0.583 µM)
MIC (Mycobacterium avium 103): 0.18 µg/mL (≈ 0.42 µM)
MIC (M. avium Far): 0.23 µg/mL (≈ 0.537 µM)
MIC (Nocardia caviae 2497): 0.125 µg/mL (≈ 0.292 µM)
MIC (N. nova 10): 1 µg/mL (≈ 2.33 µM)
MIC (M. kansasii 316): 0.06 µg/mL (≈ 0.14 µM)
MIC (M. kansasii 379): < 0.015 µg/mL
MIC [8]: 0.06 µg/mL (≈ 0.14 µM)
MIC (M. abscessus MC 6005): 1 µg/mL (≈ 2.33 µM)
MIC (M. abscessus BB3): 0.5 µg/mL (≈ 1.17 µM)
MIC (M. abscessus BB4): 2 µg/mL (≈ 4.67 µM)
MIC (M. abscessus MC 5812): 1 µg/mL (≈ 2.33 µM)
MIC (M. abscessus MC 5901): 1 µg/mL (≈ 2.33 µM)
MIC (M. abscessus BB6): 0.5 µg/mL (≈ 1.17 µM)
MIC (M. abscessus LT 949): 1 µg/mL (≈ 2.33 µM)
MIC (M. abscessus BB10): 0.015 µg/mL (≈ 0.035 µM)
MIC (M. abscessus MC 6142): 0.5 µg/mL (≈ 1.17 µM)
MIC (M. abscessus MC 6136): 0.5 µg/mL (≈ 1.17 µM)
MIC (M. abscessus MC 6111): 0.5 µg/mL (≈ 1.17 µM)
MIC (M. abscessus MC 6153): 1 µg/mL (≈ 2.33 µM)
MIC90 (Neisseria gonorrhoeae): 0.25 µg/mL (≈ 0.583 µM)
MIC Range (Neisseria gonorrhoeae): 0.12 to 0.25 µg/mL
MIC Range (Clostridium difficile): 0.06 to 4 µg/mL
MIC90 (Clostridium difficile; Clostridioides difficile): 0.25 µg/mL (≈ 0.583 µM)
MIC90 (Clostridium perfringens): 0.5 µg/mL (≈ 1.17 µM)
MIC Range (Clostridium perfringens; 12 isolates, Protocol 3): 0.12 to 0.5 µg/mL
MIC90 (Fusobacterium spp.): > 16 µg/mL
MIC90 (Peptostreptococcus spp.): > 16 µg/mL
MIC [9]: ≦0.016
MIC [10]: ≦0.016
